Results taken from paper PMC8388125, “Kinetic and Structural Characterization of the Self-Labeling Protein Tags HaloTag7, SNAP-tag, and CLIP-tag” (Biochemistry, 2021).
Residue numbers refer to the chain shown, from its start.

Key:
Format in all cases: biochemical
SNAP-tag (SNAP) = target: T1, SNAP-tag (SNAP) (Homo sapiens, UniProt P16455, A127T/A154D/C150Q/C62A/G131K/G132T/G153L/K125A/K32I/L33F/M134L/N157G/Q115S/Q116H/R128A/R135S/S151G/S152D/S159E); assay: SNAP labeling kinetics via microplate reader (FP over time)
T1 construct: made in house; host or cells: E. coli BL21(DE3)-pLysS
T1 sequence (P16455 1-182 K32I/L33F/C62A/Q115S/Q116H/K125A/A127T/R128A/G131K/G132T/M134L/R135S/C150Q/S151G/S152D/G153L/A154D/N157G/S159E limits assumed): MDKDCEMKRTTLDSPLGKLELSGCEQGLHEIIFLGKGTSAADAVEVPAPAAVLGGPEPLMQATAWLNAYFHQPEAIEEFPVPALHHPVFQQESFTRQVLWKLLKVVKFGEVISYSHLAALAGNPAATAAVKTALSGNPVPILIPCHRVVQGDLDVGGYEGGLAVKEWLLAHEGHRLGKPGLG
Description: (§1) Labeling kinetics of SNAP and CLIP substrates were measured by recording FP over time using a microplate reader in a manner analogous to that of HT7 labeling kinetics described above with the following changes. The fluorescent substrate concentration was fixed to 20 nM, and protein concentrations were varied from 15 to 900 nM. Measurements were performed in SNAP-FP buffer.
(§2) Kinetic data from microplate reader assays were fitted to a simplified kinetic model (eq 13) described by differential eqs 14–16 using DynaFit. The dead time of the measurements and baseline FP value were put in as fixed parameters. Standard deviations (normal distribution verified) and confidence intervals of fitted parameters were estimated with the Monte Carlo method with standard settings (N = 1000, 5% worst fits discarded). In the case of BG, CP, and BC kinetics, the substrate concentration was fitted by DynaFit to rule out quantification errors of the BG, CP, or BC fluorophores. Accurate fitting of the concentration was ensured by including conditions under which protein is limiting and no maximum FP value was reached.

CLIP-tag (CLIP) = target: T2, CLIP-tag (CLIP) (Homo sapiens, UniProt P16455, A121V/A127T/A154D/C150Q/C62A/G131N/G132T/G153S/K125A/K32I/L33F/M134L/M60I/N157P/Q115S/Q116H/R128A/R135D/S151G/S152D/S159L/Y114E); assay: CLIP labeling kinetics via microplate reader (FP over time); conditions: CLIP, plate reader, kinetic model 1
T2 construct: made in house; host or cells: E. coli BL21(DE3)-pLysS
T2 sequence (P16455 1-182 K32I/L33F/M60I/C62A/Y114E/Q115S/Q116H/A121V/K125A/A127T/R128A/G131N/G132T/M134L/R135D/C150Q/S151G/S152D/G153S/A154D/N157P/S159L limits assumed): T1 sequence (P16455 1-182 K32I/L33F/C62A/Q115S/Q116H/K125A/A127T/R128A/G131K/G132T/M134L/R135S/C150Q/S151G/S152D/G153L/A154D/N157G/S159E limits assumed) with M60I, Y114E, A121V, K131N, S135D, L153S, G157P, E159L
Description: as §1, §2

CLIPf (CLIP^E30R) = target: T3, CLIPf (CLIP^E30R) (Homo sapiens, UniProt P16455, A121V/A127T/A154D/C150Q/C62A/E30R/G131N/G132T/G153S/K125A/K32I/L33F/M134L/M60I/N157P/Q115S/Q116H/R128A/R135D/S151G/S152D/S159L/Y114E); assay: CLIPf labeling kinetics via microplate reader (FP over time); conditions: plate reader
T3 construct: made in house; host or cells: E. coli BL21(DE3)-pLysS
T3 sequence (P16455 1-182 E30R/K32I/L33F/M60I/C62A/Y114E/Q115S/Q116H/A121V/K125A/A127T/R128A/G131N/G132T/M134L/R135D/C150Q/S151G/S152D/G153S/A154D/N157P/S159L limits assumed): T1 sequence (P16455 1-182 K32I/L33F/C62A/Q115S/Q116H/K125A/A127T/R128A/G131K/G132T/M134L/R135S/C150Q/S151G/S152D/G153L/A154D/N157G/S159E limits assumed) with E30R, M60I, Y114E, A121V, K131N, S135D, L153S, G157P, E159L
Description: as §1, §2

[1] = target: T4, hAGT (human O^6-alkylguanine-DNA alkyltransferase) (Homo sapiens, UniProt P16455); assay: hAGT labeling kinetics via microplate reader (FP over time); conditions: hAGT vs CLIP
T4 construct: StrepTag-II (N); enterokinase cleavage site (N); His10 (C); made in house; host or cells: E. coli BL21(DE3)-pLysS
T4 sequence (P16455 1-207): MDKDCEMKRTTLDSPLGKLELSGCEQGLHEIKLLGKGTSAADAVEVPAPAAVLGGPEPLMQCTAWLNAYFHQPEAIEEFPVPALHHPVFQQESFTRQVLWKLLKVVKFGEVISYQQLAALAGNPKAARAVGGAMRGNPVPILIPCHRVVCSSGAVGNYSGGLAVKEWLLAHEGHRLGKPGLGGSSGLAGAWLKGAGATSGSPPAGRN
Description: as §1, §2

- times slower reaction of SNAP than with BG-TMR (SNAP-tag (SNAP); SNAP cross-reactivity): more than 1000 times
- kapp (value ± standard deviation) (SNAP-tag (SNAP); SNAP, plate reader, kinetic model 1): (3.20 ± 0.02) × 10^2 M^–1 s^–1
- kapp (value ± standard deviation) (CLIP-tag (CLIP)): (1.85 ± 0.01) × 10^4 M^–1 s^–1
- kapp (CLIPf (CLIP^E30R)): (3.37 ± 0.01) × 10^4 M^–1 s^–1
- times slower reaction with hAGT than with CLIP [1]: 25000 times
Compound: CN(C)c1ccc2c(-c3cc(C(=O)NCc4ccc(COc5nccc(N)n5)cc4)ccc3C(=O)[O-])c3ccc(=[N+](C)C)cc-3oc2c1 [BC-TMR]
